The text below walks through data of patent US6369059B1, “Tetracyclic derivatives, process of preparation and use” (ICOS Corporation, priority 1994, dated 2002).

The target of one data set is T1, human recombinant PDE V (Homo sapiens, UniProt O76074).
T1 construct: purchased ICOS, Seattle USA
Briefly: Inhibitory effect on cGMP-PDE (one-step assay adapted from Wells et al.). As to conditions: 0.15 μM 8-[H3]-cGMP, 30 minutes incubation, 2% DMSO. Type of data set: biochemical. The method, then:
The enzyme used was a human recombinant PDE V (ICOS, Seattle USA).
Compounds of the invention were dissolved in DMSO finally present at 2% in the assay.
Turning to `O=C1[C@H]2Cc3c([nH]c4ccccc34)[C@H](c3ccc4c(c3)OCO4)N2C(=O)CN1Cc1ccncc1` (relative stereo) [Example 12, Cis-2,3,6,7,12,12a-Hexahydro-2-(4-pyridylmethyl)-6-(3,4-methylenedioxyphenyl)-pyrazino[2′,1′:6,1]pyrido[3,4-b]indole-1,4-dione], the IC50 (in general, the concentration that inhibits the measured activity by half) is 10 nM.

In a further data set the test system is Rat aortic smooth muscle cells (RSMC). Briefly: cGMP level measurements in ANF-stimulated cells. As to conditions: 30 minutes at 37° C. with compound, then ANF (100 nM) for 10 minutes, c-GMP by scintillation proximity immunoassay. Type of data set: cell-based. On the procedure:
Rat aortic smooth muscle cells (RSMC) prepared according to Chamley et al. in Cell Tissue Res. 177 503-522 (1977) were used between the 10th and 25th passage at confluence in 24-well culture dishes. Culture media was aspirated and replaced with PBS (0.5 ml) containing the compound tested at the appropriate concentration. After 30 minutes at 37° C., particulates guanylate cyclase was stimulated by addition of ANF (100 nM) for 10 minutes. At the end of incubation, the medium was withdrawn and two extractions were performed by addition of 65% ethanol (0.25 ml). The two ethanolic extracts were pooled and evaporated until dryness, using a Speed-vac system. c-GMP was measured after acetylation by scintillation proximity immunoassay ([…]).
In general terms: Scintillation proximity formats need no separation of bound from free tracer.
Turning to `O=C1[C@H]2Cc3c([nH]c4ccccc34)[C@H](c3ccc4c(c3)OCO4)N2C(=O)CN1Cc1ccncc1` (relative stereo) [Example 12, Cis-2,3,6,7,12,12a-Hexahydro-2-(4-pyridylmethyl)-6-(3,4-methylenedioxyphenyl)-pyrazino[2′,1′:6,1]pyrido[3,4-b]indole-1,4-dione], the EC50 – broadly, the concentration needed to bring the measured effect to its halfway point – worked out at 150 nM.

Tested on in the next data set: not given
Assay: not given
Conditions: not given
For `O=C1[C@H]2Cc3c([nH]c4ccccc34)[C@H](c3ccc4c(c3)OCO4)N2C(=O)CN1Cc1ccncc1` (relative stereo) [Example 12, Cis-2,3,6,7,12,12a-Hexahydro-2-(4-pyridylmethyl)-6-(3,4-methylenedioxyphenyl)-pyrazino[2′,1′:6,1]pyrido[3,4-b]indole-1,4-dione], the melting point (usually the temperature, or range, at which the solid turns liquid) was in the range of 273 to 274 °C.

For `CN1CC(=O)N2[C@@H](c3ccc(O)cc3)c3[nH]c4ccccc4c3C[C@@H]2C1=O` (relative stereo) [Example 68, Cis-2,3,6,7,12,12a-Hexahydro-2-methyl-6-(4-hydroxyphenyl)-pyrazino[2′,1′:6,1]pyrido[3,4-b]indole-1,4-dione], the melting point lay within 179 to 180 °C. `C#CCN1CC(=O)N2[C@H](c3ccc4c(c3)OCO4)c3[nH]c4ccccc4c3C[C@@H]2C1=O` [Example 102, (6R,12aR)-2,3,6,7,12,12a-Hexahydro-6-(3,4-methylenedioxyphenyl)-2-(2-propynyl)-pyrazino[2′,1′:6,1]pyrido[3,4-b]indole-1,4-dione]: the melting point is 271 °C. Still for that read-out and setting: the result for `Cc1ccc2[nH]c3c(c2c1)C[C@@H]1C(=O)N(C)CC(=O)N1[C@H]3c1ccc2c(c1)OCO2` (relative stereo) [Example 96, Cis-2,3,6,7,12,12a-Hexahydro-2,10-dimethyl-6-(3,4-methylenedioxyphenyl)-pyrazino[2′,1′:6,1]pyrido[3,4-b]indole-1,4-dione] reads 275 °C; that for `CN1CC(=O)N2[C@@H](c3cccnc3)c3[nH]c4ccccc4c3C[C@@H]2C1=O` (relative stereo) [Example 77, Cis-2,3,6,7,12,12a-Hexahydro-2-methyl-6-(3-pyridyl)-pyrazino[2′,1′:6,1]pyrido[3,4-b]indole-1,4-dione], 312 °C. The same measure, in the same setting: the value for `COc1ccc([C@@H]2c3[nH]c4ccccc4c3C[C@@H]3C(=O)N(CC4CC4)CC(=O)N23)cc1Cl` [Example 87, (6R,12aR)-2,3,6,7,12,12a-Hexahydro-6-(3-chloro-4-methoxyphenyl)-2-cyclopropylmethyl-pyrazino[2′,1′:6,1]pyrido[3,4-b]indole-1,4-dione] was 218 to 219 °C; that for `Cc1ccc([C@H]2c3[nH]c4ccccc4c3C[C@@H]3C(=O)N(C)CC(=O)N23)cc1` (relative stereo) [Example 61, Cis-2,3,6,7,12,12a-Hexahydro-2-methyl-6-(4-methylphenyl)-pyrazino[2′,1′:6,1]pyrido[3,4-b]indole-1,4-dione] was > 260 °C; that for `COc1cc([C@H]2c3[nH]c4ccccc4c3C[C@@H]3C(=O)N(C)CC(=O)N23)ccc1O` (relative stereo) [Example 70, Cis-2,3,6,7,12,12a-Hexahydro-6-(4-hydroxy-3-methoxyphenyl)-2-methyl-pyrazino[2′,1′:6,1]pyrido[3,4-b]indole-1,4-dione] was 264 to 265 °C. The compound `Cc1ccc([C@H]2c3[nH]c4ccccc4c3C[C@@H]3C(=O)N(C(C)C)CC(=O)N23)cc1` (relative stereo) [Example 62, Cis-2,3,6,7,12,12a-Hexahydro-2-isopropyl-6-(4-methylphenyl)-pyrazino[2′,1′:6,1]pyrido[3,4-b]indole-1,4-dione] gave a melting point of 170 °C.

Regarding `CCCCN1CC(=O)N2[C@@H](c3ccc(OC)cc3)c3[nH]c4ccccc4c3C[C@@H]2C1=O` (relative stereo) [Example 29, Cis-2,3,6,7,12,12a-Hexahydro-2-butyl-6-(4-methoxyphenyl)-pyrazino[2′,1′:6,1]pyrido[3,4-b]indole-1,4-dione], the melting point stood at 157 °C.

On to `CCN1CC(=O)N2[C@@H](c3ccc(OC)cc3)c3[nH]c4ccccc4c3C[C@@H]2C1=O` (relative stereo) [Example 27, Cis-2,3,6,7,12,12a-Hexahydro-2-ethyl-6(4-methoxyphenyl)-pyrazino[2′,1′:6,1]pyrido[3,4-b]indole-1,4-dione], for which the melting point lay within 245 to 255 °C. `CCCN1CC(=O)N2[C@@H](c3ccc4c(c3)OCO4)c3[nH]c4ccccc4c3C[C@@H]2C1=O` (relative stereo) [Example 15, Cis-2,3,6,7,12,12a-Hexahydro-6-(3,4-methylenedioxyphenyl)-2-propyl-pyrazino[2′,1′:6,1]pyrido[3,4-b]indole-1,4-dione] registered a melting point of 270 to 271 °C. In turn, `O=C1[C@H]2Cc3c([nH]c4ccccc34)[C@H](c3ccc4c(c3)OCO4)N2C(=O)CN1C1CCCC1` (relative stereo) [Example 21, Cis-2,3,6,7,12,12a-Hexahydro-2-cyclopentyl-6-(3,4-methylenedioxyphenyl)-pyrazino[2′,1′:6,1]pyrido[3,4-b]indole-1,4-dione] returned a melting point of 270 °C.

In the case of `CN1CC(=O)N2[C@@H](c3ccsc3)c3[nH]c4ccccc4c3C[C@@H]2C1=O` (relative stereo) [Example 57, Cis-2,3,6,7,12,12a-Hexahydro-2-methyl-6-(3-thienyl)-pyrazino[2′,1′:6,1]pyrido[3,4-b]indole-1,4-dione], the melting point lay within 290 to 295 °C.

For `O=C1[C@H]2Cc3c([nH]c4ccccc34)[C@H](c3ccc4c(c3)OCO4)N2C(=O)CN1CC1CC1` (relative stereo) [Example 20, Cis-2,3,6,7,12,12a-Hexahydro-2-cyclopropylmethyl-6-(3,4-methylenedioxyphenyl)-pyrazino[2′,1′:6,1]pyrido[3,4-b]indole-1,4-dione], the melting point fell in the range of 217 to 218 °C. Compound `CN1CC(=O)N2[C@@H](c3ccc(OC(F)(F)F)cc3)c3[nH]c4ccccc4c3C[C@@H]2C1=O` (relative stereo) [Example 67, Cis-2,3,6,7,12,12a-Hexahydro-2-methyl-6-(4-trifluoromethoxyphenyl)-pyrazino[2′,1′:6,1]pyrido[3,4-b]indole-1,4-dione] displayed a melting point of 174 to 180 °C. On to `O=C1[C@H]2Cc3c([nH]c4ccccc34)[C@H](c3ccc(Br)s3)N2C(=O)CN1C1CCCC1` (relative stereo) [Example 55, Cis-2,3,6,7,12,12a-Hexahydro-6-(5-bromo-2-thienyl)-2-cyclopentyl-pyrazino[2′,1′:6,1]pyrido[3,4-b]indole-1,4-dione], for which the melting point was determined as 252 °C. In turn, `CCc1ccc([C@H]2c3[nH]c4ccccc4c3C[C@@H]3C(=O)N(CC4CC4)CC(=O)N23)cc1` (relative stereo) [Example 73, Cis-2,3,6,7,12,12a-Hexahydro-6-(4-ethylphenyl)-2-cyclopropylmethyl-pyrazino[2′,1′:6,1]pyrido[3,4-b]indole-1,4-dione] registered a melting point of 160 °C. `O=C1NCC(=O)N2[C@@H](c3ccc4c(c3)OCO4)c3[nH]c4ccccc4c3C[C@H]12` (relative stereo) [Example 4, Cis-2,3,6,7,12,12a-Hexahydro-6-(3,4-methylenedioxyphenyl)-pyrazino[2′,1′:6,1]pyrido[3,4-b]indole-1,4-dione] came in with a melting point of 283 to 285 °C. Consider `O=C1[C@H]2Cc3c([nH]c4ccccc34)[C@H](c3ccc(Br)s3)N2C(=O)CN1CC1CC1` (relative stereo) [Example 54, Cis-2,3,6,7,12,12a-Hexahydro-6-(5-bromo-2-thienyl)-2-cyclopropylmethyl-pyrazino[2′,1′:6,1]pyrido[3,4-b]indole-1,4-dione], for which the melting point came out at 190 °C. For the compound `CC(C)CN1CC(=O)N2[C@H](c3ccc4c(c3)OCO4)c3[nH]c4ccccc4c3C[C@@H]2C1=O` [Example 81, (6R,12aR)-2,3,6,7,12,12a-Hexahydro-2-isobutyl-6-(3,4-methylenedioxyphenyl)-pyrazino[2′,1′:6,1]pyrido[3,4-b]indole-1,4-dione], the melting point was 227 to 228 °C. Still for that read-out and setting: the result for `O=C1[C@H]2Cc3c([nH]c4ccccc34)[C@@H](c3ccc4c(c3)OCO4)N2C(=O)CN1CC1CCCCC1` [Example 83, (6R,12aR)-2,3,6,7,12,12a-Hexahydro-6-(3,4-methylenedioxyphenyl)-2-cyclohexylmethyl-pyrazino[2′,1′:6,1]pyrido[3,4-b]indole-1,4-dione] reads 209 °C; that for `CCCCN1CC(=O)N2[C@@H](c3ccc(N)cc3)c3[nH]c4ccccc4c3C[C@@H]2C1=O` (relative stereo) [Example 98, Cis-2,3,6,7,12,12a-Hexahydro-6-(4-aminophenyl)-2-butyl-pyrazino[2′,1′:6,1]pyrido[3,4-b]indole-1,4-dione], 192 °C. Take `COc1ccc([C@@H]2c3[nH]c4ccccc4c3C[C@@H]3C(=O)N(C4CCCC4)CC(=O)N23)cc1Cl` [Example 88, (6R,12aR)-2,3,6,7,12,12a-Hexahydro-2-cyclopentyl6-(3-chloro-4-methoxyphenyl)-pyrazino[2′,1′:6,1]pyrido[3,4-b]indole-1,4-dione]: the melting point is 260 to 262 °C. The compound `COc1ccc(CN2CC(=O)N3[C@H](c4ccc5c(c4)OCO5)c4[nH]c5ccccc5c4C[C@@H]3C2=O)cc1OC` [Example 97, (6R,12aR)-2,3,6,7,12,12a-Hexahydro-2-(3,4-dimethoxybenzyl)-6-(3,4-methylenedioxyphenyl)-pyrazino[2′,1′:6,1]pyrido[3,4-b]indole-1,4-dione] returned a melting point of 224 to 226 °C.
